From publication PMC12346692, “SUL-150 Limits Vascular Remodeling and Ventricular Failure in Pulmonary Arterial Hypertension” (International Journal of Molecular Sciences, 2025)
Several values for one entry are separate records, joined by “and”; a condition that tells them apart may be missing. Equal values may be shown once. Marks after values point to notes of the source that are not given here.

How the values were obtained:
PAH rats [1] = assay: Histochemistry: pulmonary artery and vessel remodeling, cardiomyocyte hypertrophy, cardiac fibrosis; assay type: in vivo, rat; conditions: ~6 mg·kg^−1·day^−1 i.p. minipump, 28 days
Protocol: Cross-sectional cardiomyocyte area was determined for approximately 400 cardiomyocytes/sample (range 182–768) using Fiji 2.1.0/1.53c in binary mode with the following particle analyzer settings: circularity 0.25–1.00 and pixel area 300–1000 px^2.
Cardiac fibrosis was measured after picrosirius staining and counterstaining with Weigert’s hematoxylin (both Sigma-Aldrich, St. Louis, MO, USA) following the manufacturer’s instructions. Samples were imaged on a NanoZoomer digital slide scanner (Hammamatsu Photonics, Shizuoka, Japan) at 40× magnification. Interstitial fibrosis (i.e., non-perivascular fibrosis) was quantified using Aperio ImageScope (Leica Biosystems, Nussloch, Germany). Morphology of the intra-acinar pulmonary vessels was assessed after Verhoeff-Von Gieson staining (Sigma-Aldrich, St. Louis, MO, USA). Samples were imaged on a Leica DM2000 microscope at 63× magnification using Leica Image Acquisition software version 4.13 (Leica, Wetzlar, Germany). Pulmonary vessel remodeling was quantified as described previously.

PAH rats [2] = assay: In-life data (body weight, discomfort, mortality) during chronic SUL-150 administration; assay type: in vivo, rat; conditions: ~6 mg·kg^−1·day^−1 i.p. minipump, 28 days
Protocol: (§1) The administration of vehicle and SUL-150 started 7 days post-monocrotaline injection and was performed by the i.p. implantation of osmotic minipumps (Alzet model #2004, Durect Corp., Cupertino, CA, USA) at the time of aortocaval shunt placement. The Lynch coil method was used to circumvent compatibility issues with the osmotic minipump reservoir as described previously. Vehicle (dimethyl sulfoxide (DMSO) or SUL-150 ((R)-(6-hydroxy-2,5,7,8-tetramethylchroman-2-yl)(piperazin-1-yl)methanone, 0.9 M in DMSO, Sulfateq BV, Groningen, The Netherlands) was administered at a flow rate of 0.25 µL·h^−1, accumulating to an approximate dose of 6 mg·kg^−1·day^−1 SUL-150 in a 300 g rat. Animals were weighed, watched for dyspnea, cyanosis, and oedema, and sacrificed preterm when a 15% weight loss or debilitating dyspnea occurred.
Three rats died during the study without a clear cause at necropsy and were excluded (sham control (n = 1) and vehicle-treated (n = 2) rats). At sacrifice, 7 rats were excluded from the study because of procedural motives: in two rats (vehicle (n = 1) and SUL-150-treated (n = 1) rats), adequate AC shunt could not be confirmed. In two other rats (both SUL-150-treated rats), the osmotic pumps were blocked by adipose deposits, limiting their function. Three rats died during cardiac function assessment (sham control (n = 2) and SUL-150 treated (n = 1) rats). Twenty rats were included in the study (sham control (n = 7), vehicle-treated (n = 7), and SUL-150-treated (n = 6) rats.

α1-adrenoceptor = test system: α1-adrenoceptor; set-up: method as in PMID 30626882; conditions: no test in this paper; α1 antagonism attributed; cited from earlier work
[3] = test system: neonatal rat cardiomyocytes; assay: In vitro hypertrophy reporter assay in phenylephrine-treated cardiomyocytes; assay type: cell-based
Protocol: Cultures of neonatal rat cardiomyocytes were prepared from 1–3-day-old Wistar rats and adenovirally transformed with hypertrophy reporter construct as described elsewhere. Cardiomyocytes were pre-incubated with SUL-150 (3 × 10^−5 M) or vehicle for 30 min and subsequently stimulated with phenylephrine in the dose range of 10^−8 to 10^−4 M for 24 h. Cells were lysed in passive lysis buffer (Promega, Madison, WI, USA), and […] intensity of the lysate was recorded in an EnVision 2102 plate reader (Perkin Elmer, Waltham, MA, USA).

PAH rats [4] = assay: Echocardiogram and hemodynamic measurements in monocrotaline + aortocaval shunt PAH rats; assay type: in vivo, rat; set-up: LVOT VTI / PV Acceleration slope: unit not given here
Protocol: Animal care and experiments were approved by the Institutional Animal Care and Use Committee (CCD # AVD105002015129) and in accordance with the ARRIVE guidelines. Forty (40) male Wistar rats (Harlan, 7–9 weeks old, weighing 276 ± 15 g) were used. PAH was induced by a single i.p. injection of monocrotaline (60 mg·kg^−1) and the placement of an aortocaval shunt one week later as described previously.
as §1
Echocardiographic (ECG) examination was performed under isoflurane anesthesia (5% in air during induction, 2% in air during maintenance) via inhalation prior to euthanisation using a Vivid Dimension 7 system and 10S-transducer (GE Healthcare, Waukesha, WI, USA). Ventricular dimensions, eccentricity index, and flow profiles over the aortic, pulmonary, and tricuspid valves were measured in standard views. Cardiac output (mL·min^−1) was calculated using the following equation: CO(mL·min^−1)=(LVOTarea×LVOTVTI)×HR , wherein LVOT area is the area of the left ventricular outflow tract, LVOT VTI is the velocity-time integral and HR is heart rate. Subsequent to ECG, invasive hemodynamic measurements were performed using a closed chest technique as described by others. A fluid-filled pressure catheter was inserted into the right internal jugular vein and guided to the pulmonary artery under pressure waveform monitoring using a bedside monitor. Right ventricular systolic and diastolic pressure, pulmonary arterial pressures, and pulmonary wedge pressure were measured. Mean pulmonary arterial pressure (mmHg) was calculated as: mPAP(mmHg)=(2/3dPAP+1/3sPAP) , wherein dPAP and sPAP are diastolic and systolic pulmonary artery pressure, respectively. Total pulmonary vascular resistance was estimated as: PVRmmHg·mL·min^−1=(mPAP−PCWP)/CO , wherein mPAP, mPWP, and CO are mean pulmonary artery pressure, pulmonary capillary wedge pressure, and cardiac output, respectively.

[5] = PAH rats, ~6 mg·kg^−1·day^−1 i.p. minipump, 28 days
[6] = PAH rats, ~6 mg·kg^−1·day^−1 i.p. minipump, 28 days, echocardiography
[7] = PAH rats, ~6 mg·kg^−1·day^−1 i.p. minipump, 28 days, result in words
[8] = SUL-150-treated versus vehicle-treated PAH rats

Cc1c(C)c2c(c(C)c1O)CC[C@](C)(C(=O)N1CCNCC1)O2 [SUL-150, (R)-(6-hydroxy-2,5,7,8-tetramethylchroman-2-yl)(piperazin-1-yl)methanone]
cardiomyocyte cross-sectional area (right ventricle) (PAH rats [1]): 246.1 ± 39.4 µm^2
cross-sectional vascular area (PAH rats [1]): 888.2 ± 146.7 µm^2
interstitial fibrosis in the cardiac tissue (PAH rats [1]): 9.3 % of tissue area
intra-acinar pulmonary vessels, cross-sectional lumen area (PAH rats [1]): 365.7 ± 101.1 µm^2
intra-acinar vessel occlusion score (PAH rats [1]): 39.0 ± 7.4%
pulmonary artery wall thickness (PAH rats [1]): 57.6 ± 13.0 µm
wall–lumen ratio (PAH rats [1]): 0.42 ± 0.12 µmwall·µmlumen^−1
percentage of non-perfusable vessels (PAH rats [1]; vessels with a luminal area < 40 µm^2): 4.45 ± 2.62%
Dyspnea frequency (PAH rats [2]): 33.3 % of rats
Edema frequency (PAH rats [2]): 0 % of rats and 0 ^a,b % of rats
End weight (day 32–33) (PAH rats [2]): 319.3 ± 12.0 ^a g
Mortality (%) (PAH rats [2]): 0 (0%) ^a,b
number of rats with dyspnea (PAH rats [2]): 2 n
survival rate (PAH rats [2]): 100%
pA2 as an α1-adrenoceptor antagonist (α1-adrenoceptor): ≈ 5.4
Emax of phenylephrine in hypertrophy reporter with SUL-150 co-treatment ([3]; SUL-150 3 × 10^−5 M pre-incubated 30 min, phenylephrine 24 h): 2.36 RFU
reduction in phenylephrine efficacy in hypertrophy reporter ([3]; SUL-150 3 × 10^−5 M versus vehicle): 40%
Pulmonary artery pressure, Diastolic (PAH rats [4]; [5]): 19.0 ± 5.7 mmHg
Pulmonary artery pressure, Mean (mPAP) (PAH rats [4]; [5]): 27.7 mmHg and 27.7 ± 5.8 mmHg and 27.7 ± 5.8 ^a mmHg
Pulmonary wedge pressure, Mean (PAH rats [4]; [5]): 4.8 ± 1.9 mmHg
Tricuspid valve insufficiency, Average grade (0–3) (PAH rats [4]; [5]): 1.0 ± 1.0 ^a,b
Tricuspid valve insufficiency, Mild (PAH rats [4]; [5]): 14.3%
Tricuspid valve insufficiency, Moderate (PAH rats [4]; [5]): 42.9%
Tricuspid valve insufficiency, Severe (PAH rats [4]; [5]): 0%
Vascular resistance, Pulmonary (PAH rats [4]; PAH rats, ~6 mg·kg^−1·day^−1 i.p. minipump, 28 days, (mPAP−PCWP)/CO): 0.12 ± 0.05 mmHg·min·mL^−1
LVIDd (PAH rats [4]; [6]): 4.27 ± 0.46 mm
LVOT Pmax (PAH rats [4]; [6]): 5.57 ± 3.73 mmHg
LVOT VTI (PAH rats [4]; [6]): 6.16 ± 2.33
LVOT Vmax (PAH rats [4]; [6]): 1.12 ± 0.39 m·s^−1
LVOT diameter (PAH rats [4]; [6]): 3.37 ± 0.24 ^b mm
PAAT (PAH rats [4]; [6]): 17.07 ± 4.17 ms
PV Acceleration slope (PAH rats [4]; [6]): 65.37 ± 19.75
PV Pmax (PAH rats [4]; [6]): 5.74 ± 1.50 mmHg
PV Vmax (PAH rats [4]; [6]): 1.14 ± 0.19 m·s^−1
RVIDd (PAH rats [4]; [6]): 3.87 ± 1.37 ^b mm
RVIDd/LVIDd ratio (PAH rats [4]; [6]): 0.92 ± 0.35
TAPSE (PAH rats [4]; [6]): 2.90 ± 0.49 ^b mm
cardiac output (PAH rats [4]; [7]): normalized
heart rate (PAH rats [4]; [7]): normalized
decrease in diastolic pulmonary artery pressure compared to PAH rats (PAH rats [4]; [8]): 25%
decrease in right ventricle inner diameter in diastole versus PAH rats (PAH rats [4]; [8]): 38%
decrease in right ventricular pressure at diastole versus PAH rats (PAH rats [4]; [8]): 52%
increase in stroke volume compared to vehicle-treated PAH rats (PAH rats [4]; [8]): 68%
